Laboratory results: EP4644396A1 (Visionpharma (Nantong) Co., Ltd, priority 2022, dated 2024)
Read-outs that look alike come from different tables or passages of the source.

Columns and labels:
human TLR7 = target: T1, human TLR7 (Homo sapiens, UniProt Q9NYK1); assay: HEK-Blue hTLR7 SEAP reporter gene inhibition assay; type: cell-based; conditions: read-out: HEK-Blue hTLR7 IC50
T1 sequence (Q9NYK1 27-1049): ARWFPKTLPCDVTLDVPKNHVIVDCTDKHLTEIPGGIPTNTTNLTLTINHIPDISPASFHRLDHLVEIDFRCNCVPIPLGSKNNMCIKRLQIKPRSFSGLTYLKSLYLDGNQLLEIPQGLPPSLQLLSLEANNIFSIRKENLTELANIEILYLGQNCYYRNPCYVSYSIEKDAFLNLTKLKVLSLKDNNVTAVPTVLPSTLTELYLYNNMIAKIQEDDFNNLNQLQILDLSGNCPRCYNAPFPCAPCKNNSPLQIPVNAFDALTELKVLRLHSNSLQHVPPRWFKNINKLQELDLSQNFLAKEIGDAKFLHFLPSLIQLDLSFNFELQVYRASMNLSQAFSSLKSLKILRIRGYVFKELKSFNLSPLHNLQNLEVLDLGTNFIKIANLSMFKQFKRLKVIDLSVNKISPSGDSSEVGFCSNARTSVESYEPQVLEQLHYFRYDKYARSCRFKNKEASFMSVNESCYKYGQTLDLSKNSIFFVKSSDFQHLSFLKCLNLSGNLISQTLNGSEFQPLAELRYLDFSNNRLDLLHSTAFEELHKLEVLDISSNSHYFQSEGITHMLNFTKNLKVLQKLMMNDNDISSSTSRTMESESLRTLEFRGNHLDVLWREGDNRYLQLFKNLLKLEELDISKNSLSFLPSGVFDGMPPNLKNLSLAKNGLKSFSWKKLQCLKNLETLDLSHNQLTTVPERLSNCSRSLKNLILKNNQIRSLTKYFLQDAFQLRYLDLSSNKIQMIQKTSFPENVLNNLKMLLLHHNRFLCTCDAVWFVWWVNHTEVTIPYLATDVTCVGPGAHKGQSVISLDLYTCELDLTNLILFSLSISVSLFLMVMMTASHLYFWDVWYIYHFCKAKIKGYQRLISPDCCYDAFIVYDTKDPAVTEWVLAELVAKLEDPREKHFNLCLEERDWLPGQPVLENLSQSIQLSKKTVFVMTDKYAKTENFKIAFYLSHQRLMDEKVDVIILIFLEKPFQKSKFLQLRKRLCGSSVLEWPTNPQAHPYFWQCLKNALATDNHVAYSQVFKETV
Method in brief: (§1)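 Cells seeded (TLR7 line 80,000, TLR8 line 60,000 per well), compound added at 0.001–36 µM final for 15 min, then agonist at 10 µM final (Gardiquimod for TLR7) for 20 h. SEAP measured with Quanti-Blue; IC50 fitted.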

human TLR8 = target: T2, human TLR8 (Homo sapiens, UniProt Q9NR97); assay: HEK-Blue hTLR8 SEAP reporter gene inhibition assay; type: cell-based; conditions: read-out: HEK-Blue hTLR8 IC50
T2 construct: expressed in transfected cells
T2 sequence (Q9NR97 27-1041): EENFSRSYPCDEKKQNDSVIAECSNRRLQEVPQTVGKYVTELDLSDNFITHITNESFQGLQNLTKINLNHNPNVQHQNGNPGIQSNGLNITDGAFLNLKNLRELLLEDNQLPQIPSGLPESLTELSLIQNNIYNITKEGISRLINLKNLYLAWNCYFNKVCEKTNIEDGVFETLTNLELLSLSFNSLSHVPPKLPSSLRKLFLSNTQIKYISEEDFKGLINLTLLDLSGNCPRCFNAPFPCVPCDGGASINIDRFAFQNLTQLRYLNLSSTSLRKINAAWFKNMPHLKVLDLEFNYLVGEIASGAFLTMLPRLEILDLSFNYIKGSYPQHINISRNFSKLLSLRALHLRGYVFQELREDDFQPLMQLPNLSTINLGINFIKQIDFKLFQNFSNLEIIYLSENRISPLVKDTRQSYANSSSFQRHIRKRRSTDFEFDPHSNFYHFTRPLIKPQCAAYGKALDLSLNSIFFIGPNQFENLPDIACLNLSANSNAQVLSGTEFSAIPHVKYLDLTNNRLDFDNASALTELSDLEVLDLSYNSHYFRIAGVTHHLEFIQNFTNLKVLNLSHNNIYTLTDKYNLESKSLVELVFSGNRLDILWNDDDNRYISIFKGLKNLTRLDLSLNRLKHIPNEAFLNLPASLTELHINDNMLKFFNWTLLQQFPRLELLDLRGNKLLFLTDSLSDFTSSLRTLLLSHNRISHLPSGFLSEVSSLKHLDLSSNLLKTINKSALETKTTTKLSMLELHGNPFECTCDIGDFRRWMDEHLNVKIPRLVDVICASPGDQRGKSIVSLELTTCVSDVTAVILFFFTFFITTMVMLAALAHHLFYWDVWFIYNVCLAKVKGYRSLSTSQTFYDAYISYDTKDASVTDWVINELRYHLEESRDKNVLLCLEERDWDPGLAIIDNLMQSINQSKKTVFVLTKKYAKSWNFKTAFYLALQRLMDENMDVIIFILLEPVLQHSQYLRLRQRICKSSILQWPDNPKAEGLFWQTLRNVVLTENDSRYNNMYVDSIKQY
Method in brief: as §1

[1] = hTLR7 HEK-Blue cells, TLR7 ligand Gardiquimod 10 µM, 20 hours, SEAP by Quanti-blue, class symbols
[2] = hTLR8 HEK-Blue cells, TLR8 ligand 10 µM, 20 hours, SEAP by Quanti-blue, class symbols

IC50 (human TLR7; [1]) | IC50 (human TLR8; [2]) | Compound | also measured
> 50 nM | < 100 nM | C[C@@H]1CN(c2ccc(C#N)n3ncc(F)c23)Cc2c3c(nn21)CN(CC12CC(C(N)=O)(C1)C2)[C@@H](C)C3 [Example I-193, 3-(((4R,9S)-2-(7-cyano-3-fluoropyrazolo [1,5-a]pyridin-4-yl)-4,9-dimethyl-1,2,3,4,9,10-hexahydropyrido[3',4':3,4]pyrazolo[1,5-a]pyrazin-8(7H)-yl)methyl)bicyclo[1.1.1] pentane-1-carboxamide] | –
< 50 nM | > 100 nM | C[C@@H]1CN(c2ccc(C#N)n3ncc(F)c23)Cc2c3c(nn21)CN(CC1(C(N)=O)CC1)[C@@H](C)C3 [Example I-204, 1-(((4R,9S)-2-(7-cyano-3-fluoropyrazolo [1,5-a]pyridin-4-yl)-4,9-dimethyl-1,2,3,4,9,10-hexahydropyrido[3',4':3,4]pyrazolo[1,5-a]pyrazin-8(7H)-yl)methyl)cyclopropane-1-carboxamide] | –
< 50 nM | < 100 nM | C[C@@H]1CN(c2ccc(C#N)n3ncc(F)c23)Cc2c3c(nn21)CN(C[C@@](C)(O)CO)[C@@H](C)C3 [Example I-224, 4-((4R,9S)-8-((R)-2,3-dihydroxy-2-methylpropyl)-4,9-dimethyl-3,4,7,8,9,10-hexahydropyrido[3',4':3,4]pyrazolo[1,5-a]pyrazin-2(1H)-yl)-3-fluoropyrazolo[1,5-a]pyridine-7-carbonitrile] | –
– | – | C[C@@H]1CN(c2ccc(C#N)n3ncc(F)c23)Cc2c3c(nn21)CN(CC(C)(CO)CO)[C@@H](C)C3 [Example I-225, 3-Fluoro-4-((4R,9S)-8-(3-hydroxy-2-(hydroxymethyl)-2-methylpropyl)-4,9-dimethyl-3,4,7,8,9,10-hexahydropyrido[3',4':3,4]pyrazolo[1,5-a]pyrazin-2(1H)-yl)pyrazolo[1,5-a]pyridine-7-carbonitrile] | IC50 (human TLR7): > 50 nM; IC50 (human TLR8): > 100 nM
< 50 nM | > 100 nM | C[C@@H]1CN(c2ccc(C#N)n3ncc(F)c23)Cc2c3c(nn21)CN(C[C@](C)(O)CO)[C@@H](C)C3 [Example I-226, 4-((4R,9S)-8-((S)-2,3-dihydroxy-2-methylpropyl)-4,9-dimethyl-3,4,7,8,9,10-hexahydropyrido[3',4':3,4]pyrazolo[1,5-a]pyrazin-2(1H)-yl)-3-fluoropyrazolo[1,5-a]pyridine-7-carbonitrile] | –
– | – | N#Cc1ccc(N2C[C@H](N)C[C@H](C(F)(F)F)C2)c2cccnc12 [Example M5049, reference compound] | IC50 (human TLR7; hTLR7 HEK-Blue cells, TLR7 ligand Gardiquimod 10 µM, 20 hours, SEAP by Quanti-blue, numeric value): 64 nM; IC50 (human TLR8; hTLR8 HEK-Blue cells, TLR8 ligand 10 µM, 20 hours, SEAP by Quanti-blue, numeric value): 150 nM
> 50 nM | > 100 nM | N-(tert-butyl)-2-((4R,9S)-2-(7-cyano-3-fluoropyrazolo[1,5-a]pyridin-4-yl)-4,9-dimethyl-1,2,3,4,9,10-hexahydropyrido[3',4':3,4]pyrazolo[1,5-a]pyrazin-8(7H)-yl)acetamide [Example I-154] | –

Compound | IC50 (human TLR7; [1]) | IC50 (human TLR8; [2]) | also measured
C[C@@H]1CN(c2ccc(C#N)n3ncc(F)c23)Cc2c3c(nn21)CN(CC(C)(C)C(N)=O)[C@@H](C)C3 [Example I-198, 3-((4R,9S)-2-(7-cyano-3-fluoropyrazolo[1,5-a]pyridin-4-yl)-4,9-dimethyl-1,2,3,4,9,10-hexahydropyrido[3',4':3,4]pyrazolo[1,5-a]pyrazin-8(7H)-yl)-2,2-dimethyl propanamide] | > 50 nM | > 100 nM | –
